Source: US12285431B2, “Treatment of Rb-negative tumors using topoisomerase inhibitors in combination with cyclin dependent kinase 4/6 inhibitors” (G1 Therapeutics, Inc., priority 2014, dated 2025)

Columns and labels:
[1] = tested on: H69 (human small cell lung cancer, Rb-negative) cells; assay: Cellular proliferation assay (CellTiter-Glo), H69; format: cell-based; conditions: NCI-H69, 96 h, cell viability after four days
Protocol: (§1) Further cellular proliferation assays were conducted using the following cancer cell lines: MCF7 (breast adenocarcinoma—Rb-positive), ZR-75-1 (breast ductal carcinoma—Rb-positive), H69 (human small cell lung cancer—Rb-negative) cells, or A2058 (human metastatic melanoma cells—Rb-negative). These cells were seeded in Costar (Tewksbury, Massachusetts) 3093 96 well tissue culture treated white walled/clear bottom plates. Cells were treated with the compounds of Table 1 as nine point dose response dilution series from 10 uM to 1 nM. Cells were exposed to compounds and then cell viability was determined after either four (H69) or six (MCF7, ZR75-1, A2058) days as indicated using the CellTiter-Glo® luminescent cell viability assay (CTG; Promega, Madison, Wisconsin, United States of America) following the manufacturer's recommendations. Plates were read on BioTek (Winooski, Vermont) Syngergy2 multi-mode plate reader. The Relative Light Units (RLU) were plotted as a result of variable molar concentration and data was analyzed using Graphpad (LaJolla, California) Prism 5 statistical software to determine the EC50 for each compound.

[2] = tested on: A2058 (human metastatic melanoma cells, Rb-negative); assay: Cellular proliferation assay (CellTiter-Glo), A2058; format: cell-based; conditions: A2058, 144 h, cell viability after six days
Protocol: as §1

CDK4/CyclinD1 = CDK4/CyclinD1 (Homo sapiens, UniProt P11802); assay: CDK4/cyclinD1 kinase assay (Nanosyn, Caliper microfluidic kinase detection); format: biochemical; conditions: Table 2; 12-point dose-response, ATP at Km (200 μM), 10 hr; read-out: CDK4/CycD1 IC50
CDK4/CyclinD1, sequence (P11802 whole entry, species assumed): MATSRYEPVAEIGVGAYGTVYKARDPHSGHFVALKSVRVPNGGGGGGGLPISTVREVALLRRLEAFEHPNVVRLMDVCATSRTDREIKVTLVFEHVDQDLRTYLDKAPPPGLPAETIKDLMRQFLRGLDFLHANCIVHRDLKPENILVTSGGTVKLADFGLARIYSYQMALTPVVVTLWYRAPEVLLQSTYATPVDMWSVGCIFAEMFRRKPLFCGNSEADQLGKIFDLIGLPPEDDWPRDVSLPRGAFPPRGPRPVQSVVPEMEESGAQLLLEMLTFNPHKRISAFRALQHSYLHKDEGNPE
CDK4/CyclinD1, sequence (P24385 whole entry partner, species assumed): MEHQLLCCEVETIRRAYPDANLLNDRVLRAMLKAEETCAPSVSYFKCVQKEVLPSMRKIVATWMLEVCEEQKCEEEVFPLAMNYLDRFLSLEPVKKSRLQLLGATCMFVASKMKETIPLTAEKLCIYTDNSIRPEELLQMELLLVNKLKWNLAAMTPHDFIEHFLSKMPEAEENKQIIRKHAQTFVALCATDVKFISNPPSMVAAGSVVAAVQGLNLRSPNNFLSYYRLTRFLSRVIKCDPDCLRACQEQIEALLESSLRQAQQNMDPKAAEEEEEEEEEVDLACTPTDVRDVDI
Protocol: The assays were performed using microfluidic kinase detection technology (Caliper Assay Platform). The compounds were tested in 12-point dose-response format in singlicate at Km for ATP. Phosphoacceptor substrate peptide concentration used was 1 μM for all assays and Staurosporine was used as the reference compound for all assays. Specifics of each assay are as described below:
CDK4/CyclinD1: Enzyme concentration: 1 nM; ATP concentration: 200 μM; Incubation time: 10 hr.

[3] = tested on: MCF7 (breast adenocarcinoma, Rb-positive); assay: Cellular proliferation assay (CellTiter-Glo), MCF7; format: cell-based; conditions: Homo sapiens, MCF7, 144 h, cell viability after six days
Protocol: as §1

HS68 cells = assay: G1 arrest (cellular G1 and S-phase) assay, propidium iodide flow cytometry; format: cell-based, human; conditions: Homo sapiens, Hs68, HS68 cells
Protocol: HS68 cells (human skin fibroblast cell line (Rb-positive)) were stained with propidium iodide staining solution and run on Dako Cyan Flow Cytometer. The fraction of cells in G0-G1 DNA cell cycle versus the fraction in S-phase DNA cell cycle was determined using FlowJo 7.2.2 analysis.
The compounds listed in Table 1 were tested for their ability to arrest HS68 cells at the G1 phase of the cell cycle.

[4] = tested on: ZR-75-1 (breast ductal carcinoma, Rb-positive); assay: Cellular proliferation assay (CellTiter-Glo), ZR-75-1; format: cell-based; conditions: Homo sapiens, ZR-75-1, 144 h, cell viability after six days, read-out: ZR75-1 Cellular EC50
Protocol: as §1

Compound | EC50 [1] | EC50 [2] | IC50 (CDK4/CyclinD1) | EC50 [3] | EC50 (HS68 cells) | EC50 [4]
CCC(C)CN1CCN(c2ccc(Nc3ncc4cc5n(c4n3)C3(CCCC3)CNC5=O)nc2)CC1 (stereo not drawn) [AAA] | > 3000 nM | > 3000 nM | 2.3 nM | 320 nM | – | –
CC1(C)CN(c2ccc(Nc3ncc4cc5n(c4n3)C3(CCCCC3)CNC5=O)nc2)CCN1C1CC1 [BB] | 2940 nM | 1640 nM | 0.8 nM | – | 75 nM | –
C[C@H]1CN(c2ccc(Nc3ncc4cc5n(c4n3)C3(CCCCC3)CNC5=O)nc2)CCN1CC1CC1 [B] | – | – | 0.4 nM | 201 nM | 90 nM | 245 nM
CC(C)(C)CCN1CCN(c2ccc(Nc3ncc4cc5n(c4n3)C3(CCCC3)CNC5=O)nc2)CC1(C)C [CCC] | – | – | 2 nM | – | 250 nM | –
C[C@H](O)CN1CCN(c2ccc(Nc3ncc4cc5n(c4n3)C3(CCCCC3)CNC5=O)nc2)C[C@@H]1C [C] | – | – | 1.4 nM | 88 nM | 95 nM | 73 nM
C[C@@H]1CN(c2ccc(Nc3ncc4cc5n(c4n3)C3(CCCC3)CNC5=O)nc2)C[C@H](C)N1 [DDD] | – | – | 9.5 nM | – | 350 nM | –
C[C@@H]1CN(c2ccc(Nc3ncc4cc5n(c4n3)C3(CCCCC3)CNC5=O)nc2)C[C@H](C)N1C [DD] | – | – | 1.9 nM | – | 100 nM | –
CC(C)(O)CN1CCN(c2ccc(Nc3ncc4cc5n(c4n3)C3(CCCC3)CNC5=O)nc2)CC1 [EEE] | > 3000 nM | > 3000 nM | – | 453 nM | 250 nM | –
CC(C)N1CCN(Cc2ccc(Nc3ncc4cc5n(c4n3)C3(CCCCC3)CNC5=O)nc2)CC1 [EE] | – | – | 3.8 nM | 216 nM | 125 nM | 203 nM
CCC(C)CN1CCN(c2ccc(Nc3ncc4cc5n(c4n3)C3(CCCC3)CNC5=O)nc2)CC1 (stereo not drawn) [FFF] | – | – | 4.7 nM | – | – | –
CCN1[C@H](C)CN(c2ccc(Nc3ncc4cc5n(c4n3)C3(CCCCC3)CNC5=O)nc2)C[C@@H]1C [FF] | – | – | – | 140 nM | 80 nM | –
O=C1NCC2(CCCCC2)n2c1cc1cnc(Nc3ccc(N4CCN(C5CCC5)CC4)cn3)nc12 [F] | – | – | 1.5 nM | – | 175 nM | –
CC(C)N1CCN(c2ccc(Nc3ncc4cc5n(c4n3)C3(CCCC3)CNC5=O)nc2)CC1C (stereo not drawn) [GGG] | – | – | 13.7 nM | – | 350 nM | –
CC1CN(c2ccc(Nc3ncc4cc5n(c4n3)C3(CCCCC3)CNC5=O)nc2)CCN1CCC(C)(C)C (stereo not drawn) [G] | – | – | 1.5 nM | – | 175 nM | –
O=C1NCC2(CCCC2)n2c1cc1cnc(Nc3ccc(N4CCC(N5CCCCC5)CC4)cn3)nc12 [HHH] | – | – | 6.8 nM | – | 250 nM | –
O=C1NCC2(CCCCC2)n2c1cc1cnc(Nc3ccc(N4CCN(CC5CC5)CC4)cn3)nc12 [HH] | – | – | 1.7 nM | – | 110 nM | –
CC(C)N1CCN(c2ccc(Nc3ncc4cc5n(c4n3)C3(CCCC3)CNC5=O)nc2)CC1 [III] | – | – | 6 nM | – | 250 nM | –
CCC(C)CN1[C@H](C)CN(c2ccc(Nc3ncc4cc5n(c4n3)C3(CCCC3)CNC5=O)nc2)C[C@@H]1C (stereo partly drawn) [JJJ] | – | – | 3.2 nM | – | 240 nM | –
CCN(CC)C1CCN(C(=O)c2ccc(Nc3ncc4cc5n(c4n3)C3(CCCCC3)CNC5=O)nc2)C1 (stereo not drawn) [JJ] | > 3000 nM | > 3000 nM | 1.4 nM | 122 nM | 90 nM | –
CC(C)(C)CCN1CCN(c2ccc(Nc3ncc4cc5n(c4n3)C3(CCCC3)CNC5=O)nc2)CC1 [KKK] | – | – | 1.3 nM | – | 190 nM | –
C[C@H]1CN(c2ccc(Nc3ncc4cc5n(c4n3)C3(CCCCC3)CNC5=O)nc2)CCN1 [KK] | 2420 nM | 1380 nM | 2.3 nM | 333 nM | 22 nM | –
CC1CCN(C2CCN(c3ccc(Nc4ncc5cc6n(c5n4)C4(CCCCC4)CNC6=O)nc3)CC2)C1 (stereo not drawn) [K] | > 3000 nM | 1790 nM | 1 nM | 43 nM | 28 nM | –
CCN(CC)C1CCN(c2ccc(Nc3ncc4cc5n(c4n3)C3(CCCC3)CNC5=O)nc2)CC1 [LLL] | – | – | 3.2 nM | – | 250 nM | –
O=C1NCC2(CCCCC2)n2c1cc1cnc(Nc3ccc(C(=O)N4CCN(C5CCC5)CC4)cn3)nc12 [LL] | > 3000 nM | > 3000 nM | 2 nM | 96 nM | 125 nM | –
CC(C)N1CCN(c2ccc(Nc3ncc4cc5n(c4n3)C3(CCCCC3)CNC5=O)nc2)C[C@H]1C [L] | 2160 nM | > 3000 nM | – | 506 nM | 65 nM | –

Compound | EC50 [1] | EC50 [2] | IC50 (CDK4/CyclinD1) | EC50 [3] | EC50 (HS68 cells) | EC50 [4]
C[C@H]1CN(c2ccc(Nc3ncc4cc5n(c4n3)C3(CCCCC3)CNC5=O)nc2)CCN1CCC(C)(C)C [M] | – | – | – | – | 100 nM | –
CC1CN(c2ccc(Nc3ncc4cc5n(c4n3)C3(CCCC3)CNC5=O)nc2)CCN1CC1CC1 (stereo not drawn) [NNN] | – | – | 1.4 nM | – | 210 nM | –
C[C@@H]1CN(c2ccc(Nc3ncc4cc5n(c4n3)C3(CCCCC3)CNC5=O)nc2)CCN1C [NN] | – | – | 3.7 nM | – | 110 nM | –
O=C1NCC2(CCCC2)n2c1cc1cnc(Nc3ccc(C(=O)N4CCN(CC5CC5)CC4)cn3)nc12 [OOO] | > 3000 nM | > 3000 nM | 2.4 nM | 138 nM | 200 nM | –
CC1CN(c2ccc(Nc3ncc4cc5n(c4n3)C3(CCCC3)CNC5=O)nc2)CCN1CCC(C)(C)C (stereo not drawn) [PPP] | – | – | – | – | 275 nM | –
CC(C)N1CCN(c2ccc(Nc3ncc4cc5n(c4n3)C3(CCCCC3)CNC5=O)nc2)CC1C (stereo not drawn) [PP] | – | – | 3.1 nM | 164 nM | 100 nM | 66 nM
O=C1NCC2(CCCC2)n2c1cc1cnc(Nc3ccc(N4CCNCC4)cn3)nc12 [QQQ] | – | – | 10.5 nM | – | 500 nM | –
CCN(CC)C1CCN(c2ccc(Nc3ncc4cc5n(c4n3)C3(CCCCC3)CNC5=O)nc2)C1 (stereo not drawn) [QQ] | > 3000 nM | > 3000 nM | 4.1 nM | – | – | –
CC(C)N1CCN(c2ccc(Nc3ncc4cc5n(c4n3)C3(CCCC3)CNC5=O)nn2)CC1 [RRR] | – | – | 2.6 nM | – | 400 nM | –
CCN(CC)C1CCN(C2CCN(c3ccc(Nc4ncc5cc6n(c5n4)C4(CCCCC4)CNC6=O)nc3)CC2)C1 (stereo not drawn) [RR] | 2890 nM | 1620 nM | 1.2 nM | 72 nM | 90 nM | –
O=C1NCC2(CCCC2)n2c1cc1cnc(Nc3ccc(N4CCOCC4)nn3)nc12 [SSS] | – | – | 2 nM | – | 1500 nM | –
C[C@@H](O)CN1CCN(c2ccc(Nc3ncc4cc5n(c4n3)C3(CCCCC3)CNC5=O)nc2)CC1 [S] | > 3000 nM | > 3000 nM | – | 76 nM | 150 nM | –
CN(C)C1CCN(c2ccc(Nc3ncc4cc5n(c4n3)C3(CCCC3)CNC5=O)nn2)CC1 [TTT] | – | – | 3.4 nM | – | 350 nM | –
CC(C)N1CCN(c2ccc(Nc3ncc4cc5n(c4n3)C3(CCCCC3)CNC5=O)nn2)CC1 [TT] | – | – | 0.8 nM | – | 75 nM | –
CC(C)[C@H]1CNC(=O)c2cc3cnc(Nc4ccc(N5CCNCC5)cn4)nc3n21 [UUU] | – | – | – | – | 300 nM | –
CCC(C)[C@@H]1CNC(=O)c2cc3cnc(Nc4ccc(N5CCNCC5)cn4)nc3n21 (stereo partly drawn) [VVV] | – | – | – | – | 300 nM | –
C[C@@H](O)CN1CCN(c2ccc(Nc3ncc4cc5n(c4n3)C3(CCCC3)CNC5=O)nc2)C[C@@H]1C [VV] | – | – | 3.3 nM | – | 200 nM | –
CC(C)C[C@@H]1CNC(=O)c2cc3cnc(Nc4ccc(N5CCNCC5)cn4)nc3n21 [WWW] | – | – | 18.5 nM | – | 300 nM | –
CC1CN(c2ccc(Nc3ncc4cc5n(c4n3)C3(CCCCC3)CNC5=O)nc2)CCN1CC(C)(C)O (stereo not drawn) [W] | > 3000 nM | > 3000 nM | 2.7 nM | 294 nM | 160 nM | –
CC(C)C[C@@H]1CNC(=O)c2cc3cnc(Nc4ccc(N5CCN(C)CC5)cn4)nc3n21 [XXX] | – | – | 11.4 nM | – | 300 nM | –
C[C@H](O)CN1CCN(c2ccc(Nc3ncc4cc5n(c4n3)C3(CCCC3)CNC5=O)nc2)C[C@H]1C [XX] | – | – | 1.3 nM | – | 225 nM | –
O=C1NCC2(CCCCC2)n2c1cc1cnc(Nc3ccc(N4CCC(N5CCC(C(F)(F)F)CC5)CC4)cn3)nc12 [X] | > 3000 nM | > 3000 nM | 0.9 nM | – | 65 nM | –
O=C1NCC2(CCCCC2)n2c1cc1cnc(Nc3ccc(C(=O)N4CCNCC4)cn3)nc12 [Y] | – | – | 2.5 nM | – | 350 nM | –
CN1CCN(c2ccc(Nc3ncc4cc5n(c4n3)C3(CCCC3)CNC5=O)nc2)CC1 [ZZ] | – | – | 10.5 nM | – | 500 nM | –
